From the supplement of paper PMC9663587

Assays:
Assay in all cases: GRmax, 72 h; higher = less effect;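 further: breast cell lines in 384-well plates, nine doses across a 10^4 range, Dye Drop imaging of viable cells vs DMSO and time-zero plates, GR 0 means no net growth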
SUM44PE = system: SUM44PE
MDAMB453 = system: MDAMB453
HS578T = system: HS578T
ZR751 = system: ZR751
AU565 = system: AU565
T47D = system: T47D
SUM185PE = system: SUM185PE
EVSAT = system: EVSAT
SUM52PE = system: SUM52PE
MDAMB361 = system: MDAMB361
MDAMB231 = system: MDAMB231
CAL851 = system: CAL851
SUM229PE = system: SUM229PE

SMILES | GRmax, 72 h (SUM44PE) | GRmax, 72 h (MDAMB453) | GRmax, 72 h (HS578T) | GRmax, 72 h (ZR751) | GRmax, 72 h (AU565) | GRmax, 72 h (T47D) | GRmax, 72 h (SUM185PE) | GRmax, 72 h (EVSAT) | GRmax, 72 h (SUM52PE) | GRmax, 72 h (MDAMB361) | GRmax, 72 h (MDAMB231) | GRmax, 72 h (CAL851) | GRmax, 72 h (SUM229PE)
CC1(N)CCN(c2cnc(-c3cccc(Cl)c3Cl)c(N)n2)CC1 [SHP099] (max 10 µM) | 0.807 GR | 0.726 GR | 0.632 GR | 0.829 GR | 0.97 GR | 0.879 GR | 0.457 GR | 0.952 GR | 0.937 GR | 0.626 GR | 0.943 GR | 0.632 GR | 0.936 GR
CN1CCN(CCOc2cc(OC3CCOCC3)c3c(Nc4c(Cl)ccc5c4OCO5)ncnc3c2)CC1 [Saracatinib/AZD0530] (max 10 µM) | 0.381 GR | 0.393 GR | 0.189 GR | 0.328 GR | 0.147 GR | 0.389 GR | 0.419 GR | 0.0408 GR | 0.486 GR | -0.178 GR | 0.28 GR | 0.116 GR | 0.236 GR
Cc1cc(C(C)Nc2ccccc2)c2nc(N3CCOCC3)cc(=O)n2c1 (centres undefined) [TGX221] (max 10 µM) | 1.04 GR | 0.828 GR | 0.709 GR | 0.239 GR | 0.607 GR | 0.799 GR | 0.509 GR | 0.331 GR | 0.755 GR | 0.799 GR | 0.851 GR | 0.99 GR | 0.994 GR
CN(C)C/C=C/C(=O)Nc1ccc(C(=O)Nc2cccc(Nc3ncc(Cl)c(-c4c[nH]c5ccccc45)n3)c2)cc1 [THZ1] (max 1 µM) | -0.292 GR | -0.256 GR | -0.371 GR | -0.163 GR | -0.64 GR | -0.279 GR | -0.219 GR | -0.245 GR | -0.437 GR | -0.72 GR | -0.505 GR | -0.549 GR | -0.297 GR
CN(C)C/C=C/C(=O)Nc1ccc(C(=O)N2CCC[C@@H](Nc3ncc(Cl)c(-c4c[nH]c5ccccc45)n3)C2)cc1 [THZ531] (max 1 µM) | -0.203 GR | -0.294 GR | -0.246 GR | -0.242 GR | -0.527 GR | -0.141 GR | -0.175 GR | 0.0226 GR | -0.17 GR | -0.743 GR | -0.276 GR | -0.196 GR | -0.146 GR
CN(C)C/C=C/C(=O)Nc1ccc(C(=O)Nc2cccc(Nc3cc(-c4c[nH]c5ccccc45)ncn3)c2)cc1 [THZ-P1-2] (max 10 µM) | -0.518 GR | -0.706 GR | 0.92 GR | 0.262 GR | -0.648 GR | -0.453 GR | -0.295 GR | 0.76 GR | -0.598 GR | 0.142 GR | -0.691 GR | 0.468 GR | -0.655 GR
Cc1nc(-c2cn3c(n2)-c2ccc(-c4cnn(C(C)(C)C(N)=O)c4)cc2OCC3)n(C(C)C)n1 [Taselisib/GDC0032] (max 10 µM) | -0.392 GR | -0.635 GR | -0.0179 GR | -0.0193 GR | -0.531 GR | -0.105 GR | -0.367 GR | -0.535 GR | -0.0187 GR | -0.99 GR | 0.0709 GR | -0.0171 GR | -0.0501 GR
O=C1NC(=O)[C@@H](c2cn3c4c(cccc24)CCC3)[C@@H]1c1c[nH]c2ccccc12 [Tivantinib/ARQ197] (max 10 µM) | -0.338 GR | -0.0719 GR | -0.32 GR | -0.0475 GR | -0.514 GR | -0.154 GR | 0.169 GR | -0.336 GR | -0.354 GR | -0.606 GR | -0.0845 GR | -0.326 GR | -0.423 GR
Nc1ccc(-c2ccc3ncc4ccc(=O)n(-c5cccc(C(F)(F)F)c5)c4c3c2)cn1 [Torin2] (max 1 µM) | -0.556 GR | -0.814 GR | -0.217 GR | -0.0631 GR | -0.39 GR | 0.0099 GR | -0.0832 GR | -0.334 GR | -0.351 GR | -0.964 GR | -0.0262 GR | -0.154 GR | -0.0085 GR
CC[C@@H]1C(=O)N(C)c2cnc(Nc3ccc(C(=O)N[C@H]4CC[C@H](N5CCN(CC6CC6)CC5)CC4)cc3OC)nc2N1C(C)C [Volasertib/BI6727] (max 1 µM) | -0.288 GR | -0.201 GR | -0.312 GR | -0.17 GR | -0.473 GR | -0.159 GR | 0.28 GR | -0.375 GR | -0.409 GR | -0.497 GR | -0.0186 GR | -0.289 GR | -0.356 GR
O=C(CCCCCCC(=O)Nc1ccccc1)NO [Vorinostat] (max 10 µM) | -0.427 GR | -0.608 GR | -0.169 GR | -0.0452 GR | -0.491 GR | -0.157 GR | 0.222 GR | -0.497 GR | 0.0882 GR | -0.939 GR | -0.385 GR | -0.183 GR | -0.0664 GR
C=CC(=O)Nc1ccc(C(=O)Nc2[nH]nc3c2CN(C(=O)N[C@H](CN(C)C)c2ccccc2)C3(C)C)cc1 [YKL-5-124] (max 10 µM) | -0.448 GR | -0.503 GR | -0.445 GR | 0.13 GR | -0.563 GR | -0.146 GR | -0.0052 GR | -0.401 GR | 0.0084 GR | -0.835 GR | -0.19 GR | -0.592 GR | -0.0428 GR
CN1CCN(C(=O)c2ccc3cc(CCNc4ncnc5ccc(C#N)cc45)ccc3c2)CC1 [senexin b] (max 10 µM) | 0.309 GR | 0.148 GR | 0.765 GR | 0.845 GR | 0.76 GR | 0.213 GR | 0.444 GR | 0.642 GR | 0.742 GR | 0.271 GR | 0.892 GR | 0.615 GR | 0.696 GR
